Tested on: MRC-5 human lung normal fibroblast cells
Test: Fluorescence intensity as a function of incubation time in normal cells
Type: cell-based
Details: MRC-5 cells
Procedure: The fluorescence intensity of 3,6-bis(1-methyl-4-vinylpyridinium)carbazole diiode (BMVC) described in Kang et al., J. Chin. Chem. Soc., 2005, 52, 1069-1072 and Compound 3 were measured in CL1-0 lung cancer cells and MRC-5 human lung normal fibroblast cells as a function of incubation time.

## C[n+]1ccc(C=Cc2ccc3[nH]c4ccc(C=Cc5cc[n+](C)cc5)cc4c3c2)cc1.[I-].[I-] [BMVC, 3,6-bis(1-methyl-4-vinylpyridinium)carbazole diiode]
  fluorescence in normal cells: weak fluorescence in normal cells
